Laboratory results from patent US6787547B2, “Compound and method for the treatment of pain” (Astrazeneca AB, priority 1999, dated 2004).

How the values were obtained:
[1] = tested on: formalin-induced nociceptive behaviors in rats; test: Test B: Formalin test (formalin-induced nociceptive behaviors); format: in vivo, rat
Source text: The Formalin test assesses the inhibitory effects of orally administered compounds on formalin-induced nociceptive behaviors in rats (D. Dubuisson, et al., Pain 4, 161-174 (1977); H. Wheeler-Aceto et al., Psychopharmacology 104, 35-44 (1991); T. J. Coderre, et al, Pain 54, 43-50 (1993)). In the test two distinctive phases of formalin-induced behaviors are detected. A first phase response, caused by acute nociception to the noxious chemical (formalin) injected into the paw, occurs between 0 to 5 minutes. A quiescent period of between 5 to 15 min post injection follows. After the quiescent period a second phase response, caused by sensitization of the central neurons in the dorsal horn, occurs after 15 minutes and lasts up to 60 minutes. Central sensitization augments a noxious afferent input causing a stronger pain barrage to be transmitted to the brain. Inhibition of the second phase response indicates a spinal mechanism of drug action.
The procedure for the formalin test is as follows: male rats are placed in a plexiglass chamber and observed for 30-45 min. to observe their baseline activity. […] The number of paw flinches (responses) during first phase (0-5 min.) and second phase (20-35 min.) are scored and recorded. Flinch response is calculated as percentage of inhibition compared with the mean score of a saline control group. […]

[2] = tested on: CCI rats, heat hyperalgesia; test: Test C: Neuropathic pain model (Chronic Constriction Injury), thermal hyperalgesia; format: in vivo, rat
Description: Test C: Neuropathic Pain Model (Chronic Constriction Injury)
Dose response studies are conducted with multiple groups of CCI rats dosed orally with either vehicle or the test compound three times daily with either vehicle or the test compound for 5 days. […] Efficacy is calculated as mean percentage decrease of hyperalgesia over 5 dosing days compared to vehicle-treated group. Compound potencies are expressed as the minimum effective dose (MED) in mg/Kg/day that yields a % decrease in hyperalgesia that is statistically significant, where the anti-hyperalgesic effect is determined as follows:
% of anti-hyperalgesia=(Mean of vehicle group−Mean of compound group)×100 (Mean of vehicle group)
Data analysis was performed by multiple means comparison (Dunnett's test).

[3] = target: T1, NMDA receptor glycine site (Homo sapiens, UniProt Q05586); test: Test A: Inhibition of binding of [3H]-MDL105,519, human brain membranes
T1 construct: Human brain membranes were obtained from Analytical Biological Services Inc; tissue Analytical Biological Services Inc; host or cells: human brain membranes
Description: (§1) Test A: Inhibition of Binding of [^3H]-MDL105,519
[^3H]MDL105,519 (72 Ci/mmol) was purchased from Amersham. Cold MDL105,519 was purchased from Sigma/RBI. Binding assays were performed substantially in accordance with the protocol of B. M. Baron et al, J. Pharmacol. Exp. Ther. 279, 62 (1996), as follows. On the day of the experiment, brain membranes were thawed at room temperature and suspended in 50 mM tris acetate buffer, pH 7.4 (“TAB”). Seventy-five micro grams per milliliter protein (by using the BioRad dye) were used for competition binding. The experiments were carried out using 96-well plates. Membranes were incubated with 20 μL of compounds of various concentrations and 1.2 nM [^3H]MDL105,519 for 30 minutes at room temperature in a total volume of 250 μL. Non specific binding was determined by using 100 μM of unlabeled MDL105,519. The unlabeled MDL105,519 and compounds were dissolved as 12.5 mM stock solutions in DMSO. Final DMSO concentration in each well was kept below 1%, which concentration was found not to alter the binding results. […] The plates were dried overnight at room temperature and bound radioactivity was measured on a Packard TopCount after the addition of 45 μL per well of the MICROSCINT O. Potency of a compound is expressed as the Ki and results were calculated using Microsoft Excel spreadsheet and GraphPad Prizm software. […]

[4] = tested on: panel of more than 80 non-NMDA receptors; test: Binding to a panel of more than 80 non-NMDA receptors
Description: The compound of the invention was also tested for binding to a panel of more than 80 non-NMDA receptors.

[5] = target: T2, NMDA receptor glycine site (Rattus norvegicus, UniProt P35439); test: Test A: Inhibition of binding of [3H]-MDL105,519, rat brain membranes; conditions: 1.2 nM [3H]MDL105,519
T2 construct: The rat brain membranes used in the experiments were obtained from Analytical Biological Services Inc; tissue Analytical Biological Services Inc; host or cells: rat brain (cerebral cortex and hippocampus) membranes
Description: as §1
The rat brain membranes used in the experiments were obtained from Analytical Biological Services Inc., and were prepared substantially in accordance with the method of B. M. Baron et al., J. Pharmacol. Exp. Ther. 250, 162 (1989). Briefly, fresh brain tissue including cerebral cortex and hippocampus from male Sprague Dawley rats was homogenized in 0.32 M sucrose and centrifuged at low speed to separate cellular membranes from other cellular components. The membranes were then washed 3 times using deionized water, followed by treatment with 0.04% Triton X-100. Finally, membranes were washed six times in 50 mM Tris citrate buffer, pH 7.4, and frozen at −80° C. until use.
[^3H]MDL105,519 (72 Ci/mmol) was purchased from Amersham. Cold MDL105,519 was purchased from Sigma/RBI. Binding assays were performed substantially in accordance with the protocol of B. M. Baron et al, J. Pharmacol. Exp. Ther. 279, 62 (1996), as follows. […] Non specific binding was determined by using 100 μM of unlabeled MDL105,519. […] The plates were dried overnight at room temperature and bound radioactivity was measured on a Packard TopCount after the addition of 45 μL per well of the MICROSCINT O. Potency of a compound is expressed as the Ki and results were calculated using Microsoft Excel spreadsheet and GraphPad Prizm software.

[6] = tested on: NMDA induced behavior/seizure; test: Inhibition of NMDA induced behavior/seizure after intrathecal injection; format: in vivo; parameters: unit not given here

| SMILES | ED50 ([1]; Rattus norvegicus, po, read-out: Efficacy in formalin pain model, ED50) [mg/kg] | Minimal effective dose / dose required, CCI model of neuropathic pain [2] | MED (minimum effective dose), CCI model of neuropathic pain ([2]; oral, three times daily for 5 days) | Ki [3] [nM] | Interaction with non-NMDA receptors [4] | Ki [5] [nM] | ED50 for inhibition of development of NMDA induced behavior/seizure [6] | Efficacy in formalin pain model, ED50 ([1]; rats, oral, dosed 3 hours prior to formalin, dose producing 50% inhibition of nociceptive response) | % anti-hyperalgesia in CCI model of neuropathic pain, heat hyperalgesia ([2]; oral, three times daily for 5 days, at the stated effective dose) |
| --- | --- | --- | --- | --- | --- | --- | --- | --- | --- |
| Cc1ccc(-n2nc(O)c3nc4cc(Cl)ccc4c(O)c3c2=O)c(Cl)c1 [compound of the invention, 7-chloro-4-hydroxy-2-(2-chloro-4-methylphenyl)-1,2,5,10-tetrahydropyridazino[4,5-b]quinoline-1,10-dione] | ~100 | less than 2 mg/Kg/day | MED < 2 mg/Kg/d | 50 | no significant interaction | 56 | 110 |  |  |
| NCC1(CC(=O)O)CCCCC1 [gabapentin, reference compound] |  | about 90 mg/Kg/day |  |  |  |  |  | comparable | about 46% |
